# Test results: ChEMBL document CHEMBL5325427
# Tested on: SARS-CoV-2
# Test: Antiviral activity against SARS CoV-2 DG614G infected human Vero cells overexpressing ACE2 compound preincubated with cells for 1 hr followed by viral infection and measured after 24 hrs by flow cytometry analysis
# Type: functional, organism-based
# Conditions: Severe acute respiratory syndrome coronavirus 2, DG614G
smiles,measurement,value
COc1ccc2[nH]c3c(c2c1)C[C@]1(OC)CC[C@H]2c4[nH]c5ccccc5c4CCN2[C@@H]1C3,IC50,0.06 µg/mL
